The values that follow are results of earlier work, collected in US20230151225A1, “BLENDING ZINC […] BASE MATERIALS IN ORDER TO CREATE QUICKLY APPLIED ANTI-MICROBIAL SURFACES” (CAO Group, Inc., priority 2020, published 2023).

In the case of zinc pyrithione, the solubility in water was 8 ppm.
